Reference: PubChem BioAssay (NCI)
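96-well plates; 48 h exposure; 5 concentrations. Endpoints by linear interpolation between flanking doses. Not reached: highest tested concentration assigned. GI50 marks 50% less growth. Definition used: TGI = concentration required for complete inhibition of growth.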

Legend:
Experiment in all cases: NCI-60 cell line screen, 48 h
SK-OV-3 ovarian = test system: SK-OV-3 ovarian
NCI/ADR-RES ovarian = test system: NCI/ADR-RES ovarian
EKVX NSCLC = test system: EKVX NSCLC
OVCAR-3 ovarian = test system: OVCAR-3 ovarian
OVCAR-4 ovarian = test system: OVCAR-4 ovarian
SK-MEL-5 melanoma = test system: SK-MEL-5 melanoma
CCRF-CEM leukemia = test system: CCRF-CEM leukemia
SK-MEL-2 melanoma = test system: SK-MEL-2 melanoma
UO-31 renal = test system: UO-31 renal
HCT-116 colon = test system: HCT-116 colon
OVCAR-8 ovarian = test system: OVCAR-8 ovarian
T-47D breast = test system: T-47D breast
NCI-H226 lung = test system: NCI-H226 lung
SF-268 CNS = test system: SF-268 CNS
RPMI-8226 leukemia = test system: RPMI-8226 leukemia
ACHN renal = test system: ACHN renal
IGROV1 ovarian = test system: IGROV1 ovarian
A498 renal = test system: A498 renal
MDA-MB-231 breast = test system: MDA-MB-231 breast
LOX IMVI melanoma = test system: LOX IMVI melanoma
TK-10 renal = test system: TK-10 renal
NCI-H23 lung = test system: NCI-H23 lung
HL-60(TB) leukemia = test system: HL-60(TB) leukemia
MOLT-4 leukemia = test system: MOLT-4 leukemia
NCI-H522 lung = test system: NCI-H522 lung
786-0 renal = test system: 786-0 renal
UACC-62 melanoma = test system: UACC-62 melanoma
CAKI-1 renal = test system: CAKI-1 renal
MCF7 breast = test system: MCF7 breast
U251 CNS = test system: U251 CNS
SNB-19 CNS = test system: SNB-19 CNS
SW-620 colon = test system: SW-620 colon
DU-145 prostate = test system: DU-145 prostate
KM12 colon = test system: KM12 colon
MALME-3M melanoma = test system: MALME-3M melanoma
HOP-92 NSCLC = test system: HOP-92 NSCLC
BT-549 breast = test system: BT-549 breast
HOP-62 NSCLC = test system: HOP-62 NSCLC
SK-MEL-28 melanoma = test system: SK-MEL-28 melanoma
HT29 colon = test system: HT29 colon
SF-539 CNS = test system: SF-539 CNS
UACC-257 melanoma = test system: UACC-257 melanoma
SR leukemia = test system: SR leukemia
HS 578T breast = test system: HS 578T breast
SN12C renal = test system: SN12C renal
RXF 393 renal = test system: RXF 393 renal
NCI-H460 lung = test system: NCI-H460 lung
SNB-75 CNS = test system: SNB-75 CNS
MDA-MB-435 = test system: MDA-MB-435
OVCAR-5 ovarian = test system: OVCAR-5 ovarian
A549 NSCLC = test system: A549 NSCLC
K-562 leukemia = test system: K-562 leukemia
PC-3 prostate = test system: PC-3 prostate
HCT-15 colon = test system: HCT-15 colon
COLO 205 colon = test system: COLO 205 colon
SF-295 CNS = test system: SF-295 CNS
M14 melanoma = test system: M14 melanoma

NCCNC1=CC(=O)c2nc3ccccc3c3ccnc1c23
GI50 (SK-OV-3 ovarian): 3.69 µM
TGI (SK-OV-3 ovarian): > 65.2 µM
GI50 (NCI/ADR-RES ovarian): 3.13 µM
TGI (NCI/ADR-RES ovarian): 24.9 µM
GI50 (EKVX NSCLC): 16.7 µM
TGI (EKVX NSCLC): 53.5 µM
GI50 (OVCAR-3 ovarian): 2.63 µM
TGI (OVCAR-3 ovarian): 11.8 µM
GI50 (OVCAR-4 ovarian): 6.47 µM
TGI (OVCAR-4 ovarian): > 47.8 µM
GI50 (SK-MEL-5 melanoma): 1.59 µM
TGI (SK-MEL-5 melanoma): 4.19 µM
GI50 (CCRF-CEM leukemia): 2.53 µM
TGI (CCRF-CEM leukemia): > 50.7 µM
GI50 (SK-MEL-2 melanoma): 3.05 µM
TGI (SK-MEL-2 melanoma): 29.6 µM
GI50 (UO-31 renal): 1.51 µM
TGI (UO-31 renal): > 20.5 µM
GI50 (HCT-116 colon): 2.3 µM
TGI (HCT-116 colon): 14.8 µM
GI50 (OVCAR-8 ovarian): 3.83 µM
TGI (OVCAR-8 ovarian): > 100 µM
GI50 (T-47D breast): 3.75 µM
TGI (T-47D breast): 20.3 µM
GI50 (NCI-H226 lung): 2.08 µM
TGI (NCI-H226 lung): 20.1 µM
GI50 (SF-268 CNS): 3.63 µM
TGI (SF-268 CNS): 42.8 µM
GI50 (RPMI-8226 leukemia): 2.01 µM
TGI (RPMI-8226 leukemia): > 40.7 µM
GI50 (ACHN renal): 1.91 µM
TGI (ACHN renal): 19.6 µM
GI50 (IGROV1 ovarian): 1.58 µM
TGI (IGROV1 ovarian): 10.6 µM
GI50 (A498 renal): 9.55 µM
TGI (A498 renal): > 100 µM
GI50 (MDA-MB-231 breast): 9.02 µM
TGI (MDA-MB-231 breast): 41.9 µM
GI50 (LOX IMVI melanoma): 3.46 µM
TGI (LOX IMVI melanoma): 37.9 µM
GI50 (TK-10 renal): 25.9 µM
TGI (TK-10 renal): > 100 µM
GI50 (NCI-H23 lung): 1.24 µM
TGI (NCI-H23 lung): 3.9 µM
GI50 (HL-60(TB) leukemia): 3.78 µM
TGI (HL-60(TB) leukemia): > 35.4 µM
GI50 (MOLT-4 leukemia): 3.39 µM
TGI (MOLT-4 leukemia): > 36.9 µM
GI50 (NCI-H522 lung): 1.53 µM
TGI (NCI-H522 lung): 4.4 µM
GI50 (786-0 renal): 2.45 µM
TGI (786-0 renal): > 29.2 µM
GI50 (UACC-62 melanoma): 1.06 µM
TGI (UACC-62 melanoma): 3.3 µM
GI50 (CAKI-1 renal): 0.534 µM
TGI (CAKI-1 renal): 2.96 µM
GI50 (MCF7 breast): 4.55 µM
TGI (MCF7 breast): > 50.1 µM
GI50 (U251 CNS): 2.3 µM
TGI (U251 CNS): 22.7 µM
GI50 (SNB-19 CNS): 1.79 µM
TGI (SNB-19 CNS): 8.33 µM
GI50 (SW-620 colon): 1.75 µM
TGI (SW-620 colon): 15.8 µM
GI50 (DU-145 prostate): 2.11 µM
TGI (DU-145 prostate): 29.5 µM
GI50 (KM12 colon): 3.67 µM
TGI (KM12 colon): 38.8 µM
GI50 (MALME-3M melanoma): 2.89 µM
TGI (MALME-3M melanoma): 13.4 µM
GI50 (HOP-92 NSCLC): 16.4 µM
TGI (HOP-92 NSCLC): > 43.8 µM
GI50 (BT-549 breast): 4.09 µM
TGI (BT-549 breast): 20.6 µM
GI50 (HOP-62 NSCLC): 0.362 µM
TGI (HOP-62 NSCLC): 6.41 µM
GI50 (SK-MEL-28 melanoma): 4.27 µM
TGI (SK-MEL-28 melanoma): > 80.5 µM
GI50 (HT29 colon): 22.6 µM
TGI (HT29 colon): > 73.6 µM
GI50 (SF-539 CNS): 1.53 µM
TGI (SF-539 CNS): 4.27 µM
GI50 (UACC-257 melanoma): 3.34 µM
TGI (UACC-257 melanoma): > 36.7 µM
GI50 (SR leukemia): 0.374 µM
GI50 (HS 578T breast): 2.12 µM
TGI (HS 578T breast): > 23.5 µM
GI50 (SN12C renal): 1.97 µM
TGI (SN12C renal): 14.4 µM
GI50 (RXF 393 renal): 3.97 µM
TGI (RXF 393 renal): 55.7 µM
GI50 (NCI-H460 lung): 0.732 µM
TGI (NCI-H460 lung): 5.56 µM
GI50 (SNB-75 CNS): 3.98 µM
TGI (SNB-75 CNS): > 29 µM
GI50 (MDA-MB-435): 1.42 µM
TGI (MDA-MB-435): 7.62 µM
GI50 (OVCAR-5 ovarian): 7.23 µM
TGI (OVCAR-5 ovarian): 40.3 µM
GI50 (A549 NSCLC): 3.26 µM
TGI (A549 NSCLC): > 100 µM
GI50 (K-562 leukemia): 1.4 µM
TGI (K-562 leukemia): > 24.3 µM
GI50 (PC-3 prostate): 4.09 µM
TGI (PC-3 prostate): 53.4 µM
GI50 (HCT-15 colon): 1.4 µM
TGI (HCT-15 colon): > 49.2 µM
GI50 (COLO 205 colon): 8.72 µM
TGI (COLO 205 colon): 29 µM
GI50 (SF-295 CNS): 1.73 µM
TGI (SF-295 CNS): 7.31 µM
GI50 (M14 melanoma): 1.48 µM
TGI (M14 melanoma): 4.75 µM
